The values that follow come from article PMC11325555, “Interaction of Bisphenol A and Its Analogs with Estrogen and Androgen Receptor from Atlantic Cod (Gadus morhua)” (Environmental Science & Technology, 2024).

The target in assay [1] is T1, Atlantic cod androgen receptor alpha (gmAra) LBD (Gadus morhua, UniProt D5FIC7).
T1 sequence (D5FIC7 409-718): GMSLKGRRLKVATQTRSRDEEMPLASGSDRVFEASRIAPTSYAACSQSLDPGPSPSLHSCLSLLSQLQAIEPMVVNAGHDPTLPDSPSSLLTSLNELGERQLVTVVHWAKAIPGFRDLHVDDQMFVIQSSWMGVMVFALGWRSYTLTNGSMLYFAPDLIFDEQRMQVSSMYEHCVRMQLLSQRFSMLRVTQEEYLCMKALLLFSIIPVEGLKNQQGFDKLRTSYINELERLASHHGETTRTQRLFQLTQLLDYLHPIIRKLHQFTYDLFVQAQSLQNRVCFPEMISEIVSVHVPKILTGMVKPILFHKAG
As to the kind of experiment: Luciferase reporter gene assay, gmAra agonism (androgenic activity) in transfected COS-7 cells. The settings on record: COS-7, monkey, 24 h, read-out: gmAra Emax. The protocol: Ligand activation of gmEra and gmAra was studied with a luciferase reporter gene assay in COS-7 cells transiently transfected with the pCMX-GAL4(DBD)-gmEra(LBD) or pCMX-GAL4(DBD)-gmAra(LBD) plasmid by using the TransIT-LT1 reagent (TransIT-LT1 Transfection Reagent, Mirus). Cells were seeded into 96-well plates (5000 cells/well) and incubated for 24 h before cotransfection with the plasmid mixture (100 ng/well). The plasmid mixture contained GAL4-UAS luciferase reporter plasmid (tk-(MH100)x4 luc), the pCMX-GAL4(DBD)-gmEra(LBD) or pCMX-GAL4(DBD)-gmAra(LBD) receptor plasmids (2:1 reporter:receptor plasmid mass ratio), and a plasmid constitutively producing the β-galactosidase enzyme used for normalization of transfection efficiency (pCMV- β-Gal). […] The maximum DMSO/methanol concentrations in the exposure wells were 0.5% (v/v) in DMEM medium without phenol red (Sigma-Aldrich). After exposure, cells were lysed, and luciferase and beta-galactosidase activities were measured as luminescence and absorbance (420 nm) after the addition of luciferin and ONPG substrates, respectively, using an Enspire Multimode plate reader (PerkinElmer, Waltham, Massachusetts, USA).
Figure 3 Androgenic activity of bisphenols. COS-7 cells were transiently transfected with gmAra LBD and exposed individually to 12 bisphenol analogs at increasing concentrations. […] The dose–response curves were created using nonlinear regression and the four-parameter logistic fit in Graphpad Prism v.9. For comparison, the dose–response curve of BPA (black line) is indicated together with each individual BP tested (red line). *p < 0.05 versus solvent control by one-way ANOVA and Dunnett’s multiple comparison post hoc test.
In general terms: In a reporter assay the amount or activity of a reporter protein is the signal.

Assay [2] concerns Er-mediated synthesis of Vtg in Atlantic cod PCLS. Briefly: Vitellogenin ELISA in media of exposed precision-cut liver slices (PCLS). The assay is classed as cell-based, Atlantic cod (Gadus morhua). The settings on record: 96 h; for Vtg synthesis in PCLS, result in words: 1, 10, 100 μM bisphenols or 0.1, 1, 10 nM EE2, Vtg in media by ELISA. Here is the method: PCLS culturing and exposure assays were performed essentially as described previously,[42],[56] with the modifications described below. Juvenile Atlantic cod were killed by a blow to the head, and the liver was dissected out and placed in a Petri dish containing ice-cold PCLS buffer (122 mM NaCl, 4.8 mM KCl, 1.2 mM MgSO4, 11 mM Na2HPO4, 3.7 mM NaHCO3, […]). The liver was then cut into small tissue blocks (approximately 3 cm long, 2 cm wide, and 1–3 cm high) and kept in ice-cold complete culture medium (L-15 medium supplemented with 10% FBS and 1× antibiotic-antimycotic solution). For slicing, the tissue block was fixed on the specimen plate of a Leica vibrating blade microtome VT1200 (Leica, Wetzlar, Germany) using Loctite Super Glue (Clas Ohlson, Bergen, Norway), and 250 μm thick tissue slices were cut (under ice-cold PCLS buffer) and kept in a Petri dish with ice-cold complete culture medium. Using a sterile razor blade, the tissue slices (2 × 3 cm) were then divided into smaller pieces (approximately 4 × 4 mm) and distributed into a 12-well cell culture plate (Sarstedt, Nümbrecht, Germany), each well containing 6 slices and 2 mL of complete culture medium. The PCLS were preincubated at 10 °C for 2 h before exposure. After preincubation, 1 mL of the medium was removed from each well and replaced by 1 mL of fresh complete culture medium containing 2x the final desired concentration and incubated at 10 °C for 96 h with shaking at 50 rpm. […] At the end of the exposure, slices were collected with tweezers and rinsed briefly in cold PBS. Excess PBS was removed by carefully touching a dry surface of the culture plate with the slice 4 times before measuring the weight in a preweighed cryotube. The slices were then snap-frozen in liquid N2 and stored at −80 °C. The media was also sampled and stored at −80 °C for viability (LDH) assay and vitellogenin ELISA.
Vitellogenin (Vtg) in media collected from exposed PCLS was quantified using the Atlantic Cod Vitellogenin ELISA kit (Biosense Laboratories AS, Bergen, Norway) according to manufacturer’s instructions. Vtg was quantified in 100 μL of undiluted media and normalized to the weight of the liver tissue. Statistical analysis of ELISA data was performed with GraphPad Prism Software version 9 (GraphPad Prism, La Jolla, CA, USA) by using one-way ANOVA followed by Dunnett’s test (for normally distributed data) or Friedman test followed by Dunn’s test (for non-normally distributed data), as described previously for PCLS experiments (Yadetie et al.[42]).
Figure 5 Relative vitellogenin production in Atlantic cod precision-cut liver slices (PCLS) exposed to bisphenols and EE2. PCLS were exposed to 1, 10, and 100 μM bisphenols or 0.1, 1, and 10 nM EE2, for 96 h. EE2 was included as positive control for activation of the gmEra signaling pathway. Levels of induced Vtg in the PCLS media were measured using ELISA (Cod Vitellogenin ELISA kit, Biosense Laboratories AS). The data represents mean ± SEM of fold change (compared to solvent control) of Vtg levels from 4 to 10 fish. n = 8–10 for all bisphenols except for BADGE (n = 4). Asterisks denote significant changes (p < 0.05) compared to solvent control.
(In general: ELISA stands for enzyme-linked immunosorbent assay.)

For the compound `CC(C)(c1ccc(OCC2CO2)cc1)c1ccc(OCC2CO2)cc1` (centres unmarked) [BADGE], the maximal fold induction in assay [1] is 1. Moreover, the “Vtg synthesis in PCLS, result in words” value in assay [2] is “small, but significant, decrease in the Vtg synthesis”.
`Oc1ccc(C2(c3ccc(O)cc3)c3ccccc3-c3ccccc32)cc1` [BPFL]: the maximal fold induction in assay [1] was 1.3. The “Vtg synthesis in PCLS, result in words” value in assay [2] was “only moderate and not statistically significant”. In addition, the “concentration at which maximum Vtg levels were observed” value in assay [2] (1, 10, 100 μM tested) worked out at 10 µM.
